Laboratory results taken from patent US20110318270A1, “DRUG IDENTIFICATION PROTOCOL FOR TYPE 2 DIABETES BASED ON GENE EXPRESSION SIGNATURES” (VERVA PHARMACEUTICALS LTD, priority 2009, published 2011).

Assays:
[1] = test system: Diet-induced obese (DIO) mice; test: Insulin sensitising effects of CAIs in diet-induced obese mice; type: in vivo; details: for reduction in the incremental area under the glucose curve (AUC) compared with vehicle-treated animals / glucose disposal: 50 mg/kg/day for 14 days, intraperitoneal glucose tolerance test
Description: Diet-induced obese (DIO) mice were treated with each CAI at 50 mg/kg/day for 14 days.

[2] = test system: Diet-induced obese (DIO) mice; test: as above; type: in vivo; details: for effect on glucose tolerance: 20-100 mg/kg/day for 14 days
[3] = test system: TNFα-treated 3T3-L1 adipocytes; test: TNFα-based GES small molecule library screen (MassARRAY, Zrcc score); type: cell-based; design: key: Zrcc: Z-score normalized for sample variation and gene contribution; details: 10 μM compound in final 24 h of 72 h TNFα (n=2); TTA n=29, TNF n=57
Description: In order to identify new insulin sensitizing agents, a small molecule library consisting of 1120 high-purity, off-patent chemical compounds was screened using the GES. First, 3T3 […] adipocytes were cultured in fourteen 96-well plates and incubated with 3 ng/ml TNFα for 72 h prior to the addition of 10 μM of each compound in the last 24 h of TNFα treatment. Four vehicle control, four TNFα and two TNFα plus ASA- and TGZ-treated wells serving as controls were included per 96-well plate. The aim of the screen was to identify compounds that caused the expression of the 7 gene GES to most closely resemble the expression levels observed in the insulin re-sensitized cells as this is likely to indicate that these cells have restored insulin sensitivity. Following RNA extraction and cDNA synthesis, gene expression analysis of the 7 gene GES was performed using the MassARRAY (Sequenom, San Diego, Calif.) [Cullinan and Cantor Pharmacogenomics 9:1211-1215, 2008]. Data are represented as a Z-score residual coefficient correlation (Zrcc); a Z-score that is normalised for sample to sample variation and for the relative contribution that each gene makes to the predictive power of the GES. Compounds were ranked based on their Zrcc score highest to lowest, and as an initial proof of concept validation test, the top ranked 30 compounds and 23 randomly chosen, mid-ranked compounds were subjected to 2-DOG uptake assays to determine their potential insulin sensitising effects. 3T3 […] adipocytes were incubated with 25 μM of each compound prior to performing 2-DOG uptake assays in the presence or absence of submaximal amounts of insulin (0.5 nM for 15 min).
The GES-ranked compounds were next broadly grouped into classes based on known mechanism of action or common structural features and re-represented as the mean Zrcc. Only compound classes with 10 or more members were considered further. As a result, the class of treatments that scored the highest, thus representing the most insulin sensitive cells, were the vehicle-treated cells with an average Zrcc score of 1.76±0.37; (p<0.0001 to TNFα treatment and p<0.002 to TNFαplus ASA and TGZ co-treatments).
In a CD63-only screen, TTA results with a negative score and TNF with a positive (p=0.02). Serving as internal controls in the screen, 3T3-L1 adipocytes were either treated with vehicle (0.2% w/v DMSO) for 72 h (n=55), 3 ng/ml TNFα for 72 h (TNF (n=57) or 3 ng/ml TNFα for 72 h plus 10 μM TGZ and 5 mM ASA in the final 24 h of the TNFα incubation (TTA) (n=29). The gene expression analysis of the GES was performed using the Mass ARRAY system (Cullinan and Cantor, 2008 supra). Data are calculated as a Z-score of the residual component following adjustment for total expression levels and incorporating the correlation coefficients derived from the Bayesian prediction model (Zrcc). The resulting metric is a Z-score that was normalized for sample to sample variation and for the relative contribution that each gene makes to the predictive power of the GES. Data are represented as mea Zrcc values±SEM (with p values compared with TNF-treated sample). The statistical analyses were performed using Student's t-Test assuming 2-tailed distribution and 2-sample equal variance.
In this assay, 3T3-L1 adipocytes were incubated with TNFα for 72 h followed by the addition of 10 μM of each compound in the final 24 h of the TNFα treatment (n=2). Compounds include VVP808, published insulin sensitizers furazolidone (FUR) (monoamine oxidase inhibitor), mesalamine (MES) and fosfosal (FOS) (NSAIDs), and estradiol-17-beta (EST), and known insulin resistance-inducing compounds such as ajmaline (AJM) (glucose uptake inhibitor) and corticosterone (COR) (glucocorticoid). Serving as internal controls in the screen, 3T3-L1 adipocytes were either treated with vehicle (0.2% DMSO) for 72 h (n=55), 3 ng/ml TNFα for 72 h) TNF) (n=57) or 3 ng/ml TNFα for 72 h plus 10 μM TGZ and […] ASA in the final 24 h of the TNFα incubation (TTA) (n=29). […]

3T3-L1 adipocytes [4] = test: Reversal of TNFα-induced insulin resistance, 2-deoxyglucose (2-DOG) uptake; type: cell-based
Description: Initially, a model of TNFα-induced insulin resistance in 3T3-L1 adipocytes was established as described previously (Sartipy and Loskutoff J Biol Chem 278:52298-52306, 2003). Following exposure of 3T3-L1 adipocytes to 3 ng/ml TNFα for 72 h, insulin resistance was determined by the ability of the cells to take up 2-deoxyglucose (2-DOG) in response to insulin. TNFα caused a 37% decrease in 2-DOG uptake compared with insulin-stimulated vehicle-treated cells (p<0.0001) (Table 1).
3T3-L1 adipocytes were either treated with vehicle—(Veh), 3 ng/ml TNFα-(TNF) or 3 ng/ml TNFα plus 10 μM TGZ and 5 mM ASA (TTA) as detailed above. Cells were then treated with insulin (0 or 10 nM) for 30 min followed by measurement of 2-deoxyglucose (2-DOG) uptake over the final 10 min of insulin stimulation. Data are presented as % change in 2-DOG uptake compared with vehicle-treated, insulin-stimulated cells and represent mean values±SEM of >3 independent experiments and each data point was assayed in triplicate. […] The amount of 2-DOG transported in vehicle-treated adipocytes was 20.5±3.4 pmol/min/well. Statistical analyses were performed using Student's t-Test assuming 2-tailed distribution and 2-sample equal variance.

3T3-L1 adipocytes [5] = test: HA-tagged GLUT4 translocation to the plasma membrane; type: cell-based; details: 10 μM for 20 h (ASA 5 mM), then 0.5 nM insulin
Description: FIGS. 2a and 2b are graphical representations of a compound stimulation of HA-tagged GLUT4 translocation to the plasma membrane in 3T3-L1 adipocytes. Adipocytes were incubated with 10 μM of each compound for 20 h prior to acute stimulation with 0.5 nM of insulin and measurement of HA-tagged GLUT4 translocation to the plasma membrane. a. The effect of the compound classes closest to TNFα plus ASA and TGZ co-incubated samples GES profile (see FIG. 1) on HA-tagged GLUT4 movement. Data are presented as fold change compared with 0.5 nM insulin alone set at 1.0 and represent mean values±SEM; n=12-40 per class. b. Individual CAI members effect on GLUT4 movement. […]
A secondary screen was next undertaken to test the 8 drug classes ranked most similar to the insulin re-sensitised TNFαplus ASA and TGZ co-treated samples to determine their ability to affect exogenous HA-tagged GLUT4 translocation to the plasma membrane in the presence of submaximal 0.5 nM insulin (Govers et al. Mol Cell Biol 24:6456-6466, 2004). Members from the sodium channel blockers, beta lactams, GABA antagonists, sulfamide antifolates, lipoxygenase inhibitors, dopamine antagonists, carbonic anhydrase inhibitors (CAIs) and antibiotics were incubated at 10 μM doses for 20 h and the overall effect of each class member was assessed and averaged.

db/db mice = details: for change in blood glucose levels compared with vehicle-treated animals: 300 mg/kg metformin or 20 mg/kg MTZ for 8 d
Description: Mice treated with MTZ (50 mg/kg/d) for 14 d were placed into metabolic cages for 24 h.

| Compound | reduction in the incremental area under the glucose curve (AUC) compared with vehicle-treated animals / glucose disposal [1] | Mean Zrcc_GES ± SEM, CLU single gene [3] | Mean Zrcc_GES ± SEM, CS single gene [3] | Mean Zrcc_GES ± SEM, STEAP4 single gene [3] | other results |
| --- | --- | --- | --- | --- | --- |
| Nc1ccccc1S(N)(=O)=O [2ABS, 2-aminobenzene sulphonamide] | did not affect glucose disposal |  |  |  | effect on glucose tolerance [2]: no significant effect |
| CC[C@H]1[C@@H]2C[C@H]3[C@@H]4N(C)c5ccccc5[C@]45C[C@@H]([C@H]2[C@H]5O)N3[C@@H]1O [AJM, ajmaline] |  | −0.2 | −0.5 | 0.6 |  |
| CC(=O)Oc1ccccc1C(=O)O [ASA, aspirin] |  |  |  |  | reversal of TNFα impairment of insulin-stimulated 2-DOG uptake (3T3-L1 adipocytes [4]; 5 mM ASA and/or 10 μM TGZ in final 24 h of 72 h TNFα treatment): fully reversed TNFα effects; HA-GLUT4 translocation above submaximal insulin (3T3-L1 adipocytes [5]): increased |
| C[C@]12C[C@H](O)[C@H]3[C@@H](CCC4=CC(=O)CC[C@@]43C)[C@@H]1CC[C@@H]2C(=O)CO [COR, corticosterone] |  | 0.5 | −0.5 | −0.2 |  |
| NS(=O)(=O)c1cc(C2(O)NC(=O)c3ccccc32)ccc1Cl (stereo not shown) [CTD, chlorthalidone] | did not affect glucose disposal |  |  |  | effect on glucose tolerance [2]: no significant effect |
| NS(=O)(=O)c1cc(Cl)c(Cl)c(S(N)(=O)=O)c1 [DCP, dichlorphenamide] | did not affect glucose disposal |  |  |  | effect on glucose tolerance [2]: no significant effect |
| O=C(O)c1ccccc1OP(=O)(O)O [FOS, fosfosal] |  | 0.6 | −0.05 | 0.3 |  |
| O=C1OCCN1/N=C/c1ccc([N+](=O)[O-])o1 [FUR, furazolidone] |  | 0.4 | −0.2 | 0.7 |  |
| Nc1ccc(O)c(C(=O)O)c1 [MES, mesalamine] |  | −0.9 | 3.1 | −0.4 |  |
| CNS(=O)(=O)c1nn(C)c(=NC(C)=O)s1 [MMTZ, N-methyl-methazolamide] | not observed |  |  |  |  |
| CC(=O)/N=c1/sc(S(N)(=O)=O)nn1C [MTZ, methazolamide] | 27% |  |  |  | body weight, food and water intake or epididymal fat mass compared with vehicle-treated mice [1]: without significant changes; 24 h urine output and creatine excretion ([1]; vs vehicle-treated): not significantly altered; time of administration after which the fasting glucose effect peaked (db/db mice; db/db mice): 7 days; time of administration after which the fasting glucose effect was seen (db/db mice; db/db mice): 3 days; lower HbA1c levels (db/db mice; db/db mice, 50 mg/kg for 28 days, vs vehicle): up to 23%; reduction of glucose urine concentration compared with vehicle-treated mice (db/db mice; db/db mice, 50 mg/kg/d for 14 d, metabolic cages 24 h): 18%; change in blood glucose levels compared with vehicle-treated animals (db/db mice; db/db mice): significantly lower change; fasting glucose levels (db/db mice; db/db mice, 20 or 50 mg/kg/d for 14 days): dose-dependent decrease; body weight, food or water intake (db/db mice; mouse, in vivo, 20 mg/kg): No change; decrease in food intake (db/db mice; mouse, in vivo, 50 mg/kg): 27%; food intake (db/db mice; mouse, in vivo, 50 mg/kg): 4.8 ± 0.5 g/day; change in fasting blood glucose after the treatment period (db/db mice; pair-fed db/db mice, 8 days, n=6/group): -6.2 ± 1.5 mM; plasma insulin levels ([2]; 14 days, dose range): dose-dependent decrease; circulating glucose levels compared with vehicle-treated mice ([2]; concentrations above 20 mg/kg, 14 days): significant reduction |
| CC(=O)/N=c1/sc(S(N)(=O)=O)nn1C [compound 808] |  | −0.4 | 0.2 | 0.5 |  |
| NS(=O)(=O)c1cc(C(=O)O)c(NCc2ccco2)cc1Cl [furosemide] |  |  |  |  | effect on glucose tolerance [2]: no significant effect |
| CN(C)C(=N)N=C(N)N [metformin] |  |  |  |  | change in blood glucose levels compared with vehicle-treated animals (db/db mice; db/db mice): significantly lower change |
| Acute Insulin: insulin, 10 nM for 30 min |  |  |  |  | 2-DOG Uptake (% of insulin-stimulated alone) (3T3-L1 adipocytes [4]; insulin 10 nM 30 min, TNFα 3 ng/ml 72 h, 10 μM TGZ & 5 mM ASA final 24 h, mean ± SEM): 100.0 ± 9.7%; fold increase in 2-DOG uptake above basal level (3T3-L1 adipocytes [4]; vehicle-treated, insulin-stimulated adipocytes (10 nM, 30 min)): 6.6±0.6 fold |
| estradiol-17-beta |  | 0.5 | 0.04 | 0.3 |  |
